Laboratory results taken from patent US12122783B2, “Stable salt of 5,10-methylene-(6R)-tetrahydrofolic acid” (MERCK & CIE, priority 2013, dated 2024).
Where a name gives a salt, the structure may show the parent alone.

Assays:
[1] = TG-FTIR thermogram under N2 flow; assay type: physicochemical; settings: 10 K min^−1
Procedure: TG-FTIR (Netzsch Thermo-Microbalance TG 209 with Bruker FT-IR Spectrometer IFS 28): Al crucible (with microhole); N2 atmosphere; 10 K min^−1 heating rate; 25° C. to 300° C. range.
• (a) The FT Raman spectrum of (6R)-5,10-CH2-THF hemisulfate salt, recorded using a nominal laser power level of 300 mW and 64 scans is shown in FIG. 1. • (b) The corresponding powder X-ray diffractogram, recorded in transmission mode, is shown in FIG. 2. • (c) The TG-FTIR thermogram of (6R)-5,10-CH2-THF hemisulfate salt is shown in FIG. 3. It was carried out under N2 flow (to avoid oxidative degradation). […] Prior to the first heating scan, the sample was equilibrated for three minutes under gaseous nitrogen flow and lost 0.6 wt.-% of its mass during that time. This is consistent with the water content observed in the TG-FTIR thermogram (see FIG. 3) and confirms that this water is loosely bound. The sample was subsequently heated in a closed gold crucible to 254° C. at 10 K min^−1, quench cooled to −50° C., and heated a second time at 10 K min^−1. […] No other thermal events were observed up to 250° C. • (e) The IR spectrum was recorded in a pressed KBr pellet and the characteristic absorption bands are shown in Table 3. • (f) The ^1H NMR spectrum of (6R)-5,10-CH2-THF hemisulfate salt was recorded in DMSO-d6 and the chemical shifts (d) in ppm are shown in Table 8.

[2] = Stability at high temperature/low pressure (XRPD); assay type: physicochemical; settings: drying chamber 65 °C, 8 mbar, 21 h
Procedure: Powder X-Ray Diffraction (Bruker D8 Advance): Copper Kα radiation, 40 kV/40 mA, LynxEye detector, Bragg-Brentano reflection geometry, 0.02° 2θ step size, 37 s step time, 2.5-50° 2θ range. Powder samples were measured in 0.1-mm or 0.5-mm deep silicon single-crystal sample holders. No special treatment was used in preparing the samples other than the application of slight pressure to get a flat surface. An ambient air atmosphere was used for all measurements, and the samples were rotated during the measurement. Absent any information to the contrary X-Ray Diffraction data is shown as reflection data.
(6R)-5,10-CH2-THF hemisulfate salt (3.01 g) was dispersed in 100 ml 85% EtOH at room temperature and stirred for 5 h, then filtered and dried at 30° C. and 8 mbar for 12 hours (over night).
(6R)-5,10-CH2-THF hemisulfate salt (2.17 g) was placed in a drying chamber at 65° C. and 8 mbar for 21 h.

Structure (SMILES): Nc1nc2c(c(=O)[nH]1)N1CN(c3ccc(C(=O)N[C@@H](CCC(=O)O)C(=O)O)cc3)C[C@H]1CN2 [(6R)-5,10-CH2-THF hemisulfate salt, 5,10-methylene-(6R)-tetrahydrofolic acid]
- Decomposition temperature (TG-FTIR) [1]: above 210 °C
- X-ray pattern distinctive for crystal form Type 1 [2]: remained unchanged
